Assay results: US20230407243A1, “GENETIC PLATFORM TO INVESTIGATE THE FUNCTIONS OF BACTERIAL DRUG EFFLUX PUMPS” (priority 2022, published 2023)
Where two headings read alike, the source gives them in different places.

Tests used:
Format in all cases: cell-based, Escherichia coli
[1] = test system: EKO-35 araC::mdtBC; test: MIC susceptibility profiling, efflux platform; settings: for Fold change of MICs: EKO-35 araC::mdtBC compared to EKO-35; for MIC: Escherichia coli, Table 13B, non-porinated, technical duplicate, read-out: Minimum Inhibitory Concentration, EKO-35 araC::mdtBC
Summary of the method: (§1)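 Strains are grown overnight in LB at 37 °C, adjusted to OD600 ~1.0 in PBS (pH 7.4) and diluted 1/2000 into MHB II. They are incubated with twofold compound dilutions for 18 h at 37 °C. MIC comes from background-subtracted OD600.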

[2] = test system: EKO-35 araC::acrD; test: MIC susceptibility profiling, efflux platform; settings: for Fold change of MICs: EKO-35 araC::acrD compared to EKO-35; for MIC: Escherichia coli, Table 13A, non-porinated, technical duplicate, read-out: Minimum Inhibitory Concentration, EKO-35 araC::acrD
Summary of the method: as §1

[3] = test system: EKO-35 araC::acrBD408A; test: MIC susceptibility profiling, efflux platform; settings: for Fold change of MICs: EKO-35 araC::acrBD408A compared to EKO-35; for MIC: Escherichia coli, Table 13B, non-porinated, technical duplicate, read-out: Minimum Inhibitory Concentration, EKO-35 araC::acrBD408A
Summary of the method: as §1

[4] = test system: EKO-35 araC::macAB; test: MIC susceptibility profiling, efflux platform; settings: for Fold change of MICs: EKO-35 araC::macAB compared to EKO-35
Summary of the method: as §1

[5] = test system: EKO-35 araC::acrEF; test: MIC susceptibility profiling, efflux platform; settings: for Fold change of MICs: EKO-35 araC::acrEF compared to EKO-35; for MIC: Escherichia coli, Table 13A, non-porinated, technical duplicate, read-out: Minimum Inhibitory Concentration, EKO-35 araC::acrEF
Summary of the method: as §1

[6] = test system: EKO-35 araC::emrAB; test: MIC susceptibility profiling, efflux platform; settings: for Fold change of MICs: EKO-35 araC::emrAB compared to EKO-35; for MIC: Escherichia coli, Table 13B, non-porinated, technical duplicate, read-out: Minimum Inhibitory Concentration, EKO-35 araC::emrAB
Summary of the method: as §1

[7] = test system: EKO-35 araC::mexCD (MexCD from P. aeruginosa); test: MIC susceptibility profiling, efflux platform; settings: for Fold change of MICs: EKO-35 araC::mexCD compared to EKO-35; for MIC: Table 13B, non-porinated, technical duplicate, read-out: Minimum Inhibitory Concentration, EKO-35 araC::mexCD
Summary of the method: as §1

[8] = test system: EKO-35 araC::emrKY; test: MIC susceptibility profiling, efflux platform; settings: for Fold change of MICs: EKO-35 araC::emrKY compared to EKO-35; for MIC: Escherichia coli, Table 13B, non-porinated, technical duplicate, read-out: Minimum Inhibitory Concentration, EKO-35 araC::emrKY
Summary of the method: as §1

[9] = test system: EKO-35 araC::acrB; test: MIC susceptibility profiling, efflux platform; settings: for Fold change of MICs: EKO-35 araC::acrB compared to EKO-35; for MIC: Escherichia coli, Table 13A, non-porinated, technical duplicate, read-out: Minimum Inhibitory Concentration, EKO-35 araC::acrB
Summary of the method: as §1

[10] = test system: EKO-35 araC::mdtEF; test: MIC susceptibility profiling, efflux platform; settings: for Fold change of MICs: EKO-35 araC::mdtEF compared to EKO-35; for MIC: Escherichia coli, Table 13A, non-porinated, technical duplicate, read-out: Minimum Inhibitory Concentration, EKO-35 araC::mdtEF
Summary of the method: as §1

[11] = test system: wild-type E. coli K-12 str. BW25113; test: microbe, parasite or virus in culture; settings: Escherichia coli
Summary of the method: as §1

[12] = test system: E. coli ΔtolC; test: microbe, parasite or virus in culture; settings: for MIC: Escherichia coli, 18 h, read-out: Minimum Inhibitory Concentration, ΔtolC; for Minimum inhibitory concentration (MIC), ΔtolC: Table 10, without pore, technical duplicate
Summary of the method: as §1

[13] = test system: E. coli EKO-35; test: microbe, parasite or virus in culture; settings: for Fold change of MICs: EKO-35 compared to EKO-35 (reference); for MIC: Escherichia coli
Summary of the method: as §1

[14] = test system: EKO-35-Pore; test: MIC susceptibility profiling, porinated strain; settings: for Fold changes of MICs: EKO-35-Pore compared to EKO-35-Pore (reference); for MIC: Escherichia coli, technical duplicate
Summary of the method: (§2)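 MIC values come from background-corrected OD600 readings (pre-incubation OD subtracted) after 18 h at 37 °C and 900 rpm in MHB II. Compounds were tested in duplicate as 2-fold dilutions. The inoculum came from 18 h LB cultures adjusted to OD600 ~1.0 and diluted 1/2000, and the pore-bearing strains were vancomycin-checked beforehand.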

[15] = test system: EKO-35 araC::mdtBC Pore; test: MIC susceptibility profiling, porinated efflux platform; settings: for Fold changes of MICs: EKO-35 araC::mdtBC Pore compared to EKO-35-Pore
Summary of the method: as §2

[16] = test system: EKO-35 araC::acrB Pore; test: as above; settings: for Fold changes of MICs: EKO-35 araC::acr-B Pore compared to EKO-35-Pore; for MIC: Escherichia coli, Table 14A, porinated, technical duplicate, read-out: Minimum inhibitory concentration, EKO-35 araC::acrB Pore
Summary of the method: as §2

[17] = test system: EKO-35 araC::mdtEF Pore; test: as above; settings: for Fold changes of MICs: EKO-35 araC::mdtEF Pore compared to EKO-35-Pore; for MIC: Escherichia coli, Table 14A, porinated, technical duplicate, read-out: Minimum inhibitory concentration, EKO-35 araC::mdtEF Pore
Summary of the method: as §2

[18] = test system: wild-type (WT) K-12-Pore; test: microbe, parasite or virus in culture; settings: Escherichia coli
Summary of the method: as §2

[19] = test system: ΔtolC-Pore; test: microbe, parasite or virus in culture; settings: for MIC: Escherichia coli, 18 h, read-out: Minimum inhibitory concentration, ΔtolC-Pore; for Minimum inhibitory concentration (MIC), Pore ΔtolC: Table 10, with pore, technical duplicate
Summary of the method: as §2

[20] = BW25113, Table 10, without pore, technical duplicate, read-out: Minimum inhibitory concentration (MIC), K-12
[21] = BW25113, Table 13A, non-porinated, technical duplicate, read-out: Minimum Inhibitory Concentration, K-12
[22] = EKO35, Table 10, without pore, technical duplicate, read-out: Minimum inhibitory concentration (MIC), EKO-35
[23] = EKO35, Table 13A, non-porinated, technical duplicate, read-out: Minimum Inhibitory Concentration, EKO-35
[24] = Table 10, with pore, technical duplicate, read-out: Minimum inhibitory concentration (MIC), Pore K-12
[25] = Table 14A, porinated, technical duplicate, read-out: Minimum inhibitory concentration, K-12 (WT)-Pore

Structure (SMILES) | Fold change of MICs [1] [fold] | Fold change of MICs [2] [fold] | Fold change of MICs [3] [fold] | Fold change of MICs [4] [fold] | Fold change of MICs [5] [fold] | Fold change of MICs [6] [fold] | Fold change of MICs [7] [fold] | MIC [7] [µg/mL] | Fold change of MICs [8] [fold] | Fold change of MICs [9] [fold] | Fold change of MICs [10] [fold] | MIC [12] [µg/mL] | Minimum inhibitory concentration (MIC), ΔtolC [12] [µg/mL] | Fold change of MICs [13] [fold] | Fold changes of MICs [14] [fold] | Fold changes of MICs [15] [fold] | Fold changes of MICs [16] [fold] | Fold changes of MICs [17] [fold] | MIC [19] [µg/mL] | Minimum inhibitory concentration (MIC), Pore ΔtolC [19] [µg/mL] | other results
NCCCNCCCCNCCCN [Spermine] | 1 | 1 | 1 | 1 | 1 | 1 | 1 | 2000 | 1 | 1 | 1 | 2000 | 2000 | 1 | 1 | 1 | 1 | 1 | 2000 | 2000 | MIC ([11]; BW25113, read-out: Minimum Inhibitory Concentration, K-12): 2000 µg/mL; MIC ([11]; BW25113, read-out: Minimum inhibitory concentration (MIC), K-12): 2000 µg/mL; MIC ([13]; EKO35, read-out: Minimum Inhibitory Concentration, EKO-35): 2000 µg/mL; MIC ([13]; EKO35, read-out: Minimum inhibitory concentration (MIC), EKO-35): 2000 µg/mL; MIC ([18]; read-out: Minimum inhibitory concentration (MIC), Pore K-12): 2000 µg/mL; MIC ([18]; read-out: Minimum inhibitory concentration, K-12 (WT)-Pore): 2000 µg/mL
[H]/N=C(/N)N[C@H]1[C@H](O)[C@@H](O)[C@H](O[C@@H]2O[C@@H](C)[C@](O)(C=O)[C@H]2O[C@@H]2O[C@@H](CO)[C@H](O)[C@@H](O)[C@@H]2NC)[C@@H](N/C(N)=N\[H])[C@@H]1O [Streptomycin] | 2 | 2 | 1 | 1 | 1 | 1 | 1 | 3.12 | 1 | 2 | 2 | 3.12 | 3.125 | 1 | 1 | 1 | 2 | 1 | 1.56 | 1.563 | MIC [1]: 6.25 µg/mL; MIC [2]: 6.25 µg/mL; MIC [3]: 3.12 µg/mL; MIC ([4]; Escherichia coli, Table 13B, non-porinated, technical duplicate, read-out: Minimum Inhibitory Concentration, EKO-35 araC::macAB): 3.12 µg/mL; MIC [5]: 3.12 µg/mL; MIC [6]: 3.12 µg/mL; MIC [8]: 3.12 µg/mL; MIC [9]: 6.25 µg/mL; MIC [10]: 6.25 µg/mL; MIC [11, 20]: 6.25 µg/mL; MIC [11, 21]: 6.25 µg/mL; MIC [13, 22]: 3.12 µg/mL; MIC [13, 23]: 3.12 µg/mL; MIC ([14]; Table 10, with pore, read-out: Minimum inhibitory concentration (MIC), Pore EKO-35): 3.12 µg/mL; MIC ([14]; Table 14A, porinated, read-out: Minimum inhibitory concentration, EKO-35-Pore): 3.12 µg/mL; MIC ([15]; Escherichia coli, EKO-35 araC::mdtBC Pore, technical duplicate, read-out: Minimum inhibitory concentration): 3.12 µg/mL; MIC [16]: 6.25 µg/mL; MIC [17]: 3.12 µg/mL; MIC [18, 24]: 12.5 µg/mL; MIC [18, 25]: 12.5 µg/mL
Nc1ccc(S(=O)(=O)Nc2nccs2)cc1 [Sulfathiazole] | 1 | 1 | 1 | 1 | 1 | 1 | 1 | 10 | 1 | 1 | 1 | 5 | 5 | 1 | 1 | 1 | 2 | 2 | 2.5 | 2.5 | MIC [1]: 10 µg/mL; MIC [2]: 10 µg/mL; MIC [3]: 10 µg/mL; MIC [5]: 10 µg/mL; MIC [6]: 10 µg/mL; MIC [8]: 10 µg/mL; MIC [9]: 10 µg/mL; MIC [10]: 10 µg/mL; MIC [11, 20]: 5 µg/mL; MIC [11, 21]: 5 µg/mL; MIC [13, 22]: 10 µg/mL; MIC [13, 23]: 10 µg/mL; MIC [16]: 10 µg/mL; MIC [17]: 10 µg/mL; MIC [18, 24]: 5 µg/mL; MIC [18, 25]: 5 µg/mL
